Measurements: patent US20230265479A1 (priority 2020, published 2023)

Tests used:
[1] = test system: Firefly Luciferase reporter gene driven by the C3P3-G2 system in HEK-293 cells; assay type: cell-based, human
[2] = test system: Firefly Luciferase reporter gene driven by the C3P3-G1 system in HEK-293 cells; assay type: cell-based, human
EIF2AK2 = EIF2AK2 (Homo sapiens, UniProt P19525); settings: binds ATP-binding site; inhibits RNA-induced EIF2AK2 autophosphorylation (Jammi et al. 2003); cited from earlier work
Chain of EIF2AK2 (P19525 whole entry): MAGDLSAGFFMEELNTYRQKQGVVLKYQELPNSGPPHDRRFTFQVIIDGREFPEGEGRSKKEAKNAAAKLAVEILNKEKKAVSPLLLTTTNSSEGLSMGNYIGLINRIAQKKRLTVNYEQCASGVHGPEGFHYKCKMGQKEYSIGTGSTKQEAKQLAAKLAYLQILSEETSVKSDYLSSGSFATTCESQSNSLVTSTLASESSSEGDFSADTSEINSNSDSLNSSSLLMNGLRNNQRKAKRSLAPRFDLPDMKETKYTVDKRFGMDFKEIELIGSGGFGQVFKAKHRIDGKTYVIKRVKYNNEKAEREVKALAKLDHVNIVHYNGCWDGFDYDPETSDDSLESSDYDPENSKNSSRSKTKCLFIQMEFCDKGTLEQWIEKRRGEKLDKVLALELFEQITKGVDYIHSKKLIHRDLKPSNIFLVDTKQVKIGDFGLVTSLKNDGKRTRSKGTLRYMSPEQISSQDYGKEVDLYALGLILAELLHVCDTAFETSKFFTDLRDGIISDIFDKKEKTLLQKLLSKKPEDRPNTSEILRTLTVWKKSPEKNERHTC

O=C1Nc2ccc3ncsc3c2/C1=C/c1cnc[nH]1 [CAS 608512-97-6]
Maximum efficacy, relative ratio vs. negative control cells [1]: 1.67 fold
Maximum efficacy, relative ratio vs. negative control cells [2]: 1.31 fold
IC50 (EIF2AK2): 0.21 µM
